“And” between values parts separate entries of the source, which are not always exact repeats. Identical values can stand only once.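 Each compound was tested at five concentrations against cells in 96-well plates for 48 hours. Abbreviation: GI50, concentration required for 50% inhibition of growth. TGI marks complete inhibition of growth.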
Assays:
Test in all cases: NCI tumour cell line growth inhibition, 48 h
HCT-15 colon = tested on: HCT-15 colon
HS 578T breast = tested on: HS 578T breast
HT29 colon = tested on: HT29 colon
MDA-MB-435 = tested on: MDA-MB-435
MOLT-4 leukemia = tested on: MOLT-4 leukemia
NCI-H460 lung = tested on: NCI-H460 lung
OVCAR-8 ovarian = tested on: OVCAR-8 ovarian
SF-295 CNS = tested on: SF-295 CNS
SN12C renal = tested on: SN12C renal
T-47D breast = tested on: T-47D breast

Row | SMILES | TGI (HCT-15 colon) [µM] | TGI (HS 578T breast) [µM] | TGI (HT29 colon) | TGI (MDA-MB-435) [µM] | TGI (MOLT-4 leukemia) [µM] | TGI (NCI-H460 lung) | TGI (OVCAR-8 ovarian) | TGI (SF-295 CNS) [µM] | TGI (SN12C renal) | TGI (T-47D breast) | GI50 (HCT-15 colon) [µM] | GI50 (HT29 colon) [µM] | GI50 (MOLT-4 leukemia) [µM] | GI50 (NCI-H460 lung) [µM] | GI50 (OVCAR-8 ovarian) [µM] | GI50 (SN12C renal) [µM]
1 | CCCCC(=C=C1CCCCC1O)C1CCCN1C(=O)OC(C)(C)C (stereo unspecified) | 32.3 | 41 | 27.3 µM | 30.6 | 33.5 | 31 µM | 34.6 µM | 28 | 31.7 µM | 29.8 µM |  |  |  |  |  | 
2 | CC(C)[Si]1(C(C)C)OCC2OC(n3cnc4c(N)ncnc43)C(N)C2O[Si](C(C)C)(C(C)C)O1 (stereo unspecified) | 23.8 | 44.5 | 26.9 µM | 30.7 | 7.84 | 27.5 µM | 25.1 µM | 21.5 | 27.9 µM | 30.5 µM |  |  |  |  |  | 
3 | COc1ccccc1OC/C(N=Cc1ccncc1)=N/NC(=O)c1ccncc1 | > 100 | > 100 | > 100 µM | > 100 | > 100 | > 100 µM | > 100 µM | > 100 | > 100 µM | > 100 µM |  |  |  |  |  | 
4 | O=C(NCCCCl)c1c(O)c2ccccc2[nH]c1=O | > 100 | > 100 | > 100 µM | > 100 | > 100 | > 100 µM | > 100 µM | > 82.5 | > 100 µM | > 100 µM |  |  |  |  |  | 
5 | COC(=O)c1cc2c3c(c(C(C)=O)c(OC)c2[nH]1)NCC3 | > 50 | > 50 | > 50 µM | > 50 | > 50 | > 50 µM | > 50 µM | > 50 | > 50 µM | > 50 µM |  |  |  |  |  | 
6 | COc1cccc(N2N=C3c4ccccc4-n4c(nc5ccccc54)C3C2N)c1 (stereo unspecified) | > 100 | > 100 | > 100 µM | > 100 |  | > 100 µM | > 100 µM | > 100 | > 100 µM | > 100 µM |  |  |  |  |  | 
7 | C/C=C\C(CC(=O)O)CC(=O)NCCC1CN(S(=O)(=O)C(F)(F)F)c2ccccc21 (stereo unspecified) | > 100 | > 100 | > 100 µM | > 100 | > 100 | > 100 µM | > 100 µM | > 100 |  |  |  |  |  |  |  | 
8 | CN(C)CCNC(=O)c1cccc2c(NC(CS)C(=O)O)c3ccccc3nc12 (stereo unspecified) | 26.3 |  | 52.3 µM | 21 | 44.3 | 87.6 µM | > 100 µM | 28.9 | 24 µM |  |  |  |  |  |  | 
9 | COc1ccc(CC2C(=O)NC(C)C(=O)N(C)C3Cc4ccc(cc4)Oc4cc(ccc4O)CC(C(=O)NC(C)C(=O)NC(C)C(=O)N2C)N(C)C3=O)cc1 (stereo unspecified) | 14.9 |  | 0.0347 µM and 0.0161 µM and 0.152 µM |  |  | 0.0284 µM and 0.106 µM and 0.0325 µM | 0.144 µM and 0.0379 µM |  | 0.281 µM and 0.536 µM | 0.201 µM and 0.0219 µM | 1.27 | < 0.0001 | < 0.0001 | 0.000156 | 0.00034 | 0.208
10 | COc1cc(C2S/C(=C/c3ccccc3)C(=O)N2c2ccc(Cl)cc2)cc(OC)c1OC (stereo unspecified) | > 100 | > 100 | > 75.9 µM | 24.8 | > 81.5 |  | > 100 µM | > 100 | > 100 µM | > 25.6 µM |  |  |  |  |  | 
